Target: T1, Human MAT2A (Homo sapiens, UniProt P31153)
T1 construct: Human MAT2A: Cepter, amino acids 1-395 Clone ID 334, lot 00023-148; purchased Cepter clone ID 334, lot 00023-148
Assay: Phosphate Sensor Fluorescence Assay (Biologic Example A)
Type: biochemical
Details: MAT2A inhibition, Biological Example A procedure (Compounds 1.001-1.028); 500 uM L-methionine, 500 uM ATP
Method: The ability of the compound of present disclosure to inhibit MAT2A enzyme was determined using a Phosphate Sensor Fluorescence Assay described below.
Biologic Example A. Phosphate Sensor Fluorescence Assay
MAT2A enzyme is incubated with a test compound in DMSO or DMSO and its substrates (L-methionine and ATP) in a microtiter plate. The enzymatic reaction is stopped by the addition of Working Phosphate Sensor Mixture. The plate is analyzed for fluorescence at 450 nm. The high control (DMSO with enzyme and its substrates) gives high fluorescence which represents no inhibition of enzymatic activity while the low control (DMSO with MAT2A substrates and no enzyme) gives low fluorescence which represents full inhibition of enzymatic activity.
• Human MAT2A: Cepter, amino acids 1-395 • Tris, pH 7.5: Invitrogen cat #15567-027 • KCl: Ambion cat #AM9640G • MgCl2: Ambion cat #AM9530G • Brij-35: Sigma cat B4184-10ML • DTT: Goldbio cat #DTT100 • BGG: Sigma cat #G5009-25G • PNP: Novus Biologicals cat #NBP1-50872 • 7-MEG: Cayman Chemical cat #15988 • L-Methionine: Alfa Aesar cat #J61904 • ATP: Alfa Aesar cat #J60336 • Phosphate Sensor: Thermo Fisher cat #PV4407 • EDTA: Life Tech cat #15575-038 • Assay plate: 384-well black polypropylene plate: Thomas Scientific cat #1149Q35
• Assay Buffer: 50 mM Tris, pH 7.5/50 mM KCl/10 mM MgCl2/0.01% Brij-35/1 mM DTT/0.1% BGG/40 nM PNP/6 uM 7-MEG • MAT2A: 10 nM for Cepter clone ID 329, lot 00023-123 before the addition of Working Phosphate Sensor Mixture • 5 nM for Cepter clone ID 334, lot 00023-148 before the addition of Working Phosphate Sensor Mixture • L-methionine: 500 uM before the addition of Working Phosphate Sensor Mixture • ATP: 500 uM before the addition of Working Phosphate Sensor Mixture
For the assay, a mixture of 1 mM L-methionine/1 mM ATP (2× final pre-stopped concentration) in assay buffer; MAT2A (2× final pre-stopped concentration) in Assay Buffer and Working Phosphate Sensor Mixture (1.5 uM Phosphate Sensor/30 mM EDTA in Assay Buffer, which is 3× final concentrations) were prepared. Test compounds or DMSO were added to the appropriate well suing D300e digital dispenser. 5 μl/well of Assay Buffer was added to the wells corresponding to the negative control and 5 μl/well of MAT2A was added to all the wells except for those corresponding to the negative control. After incubating the plate at room temperature for 15 minutes, 5 μl/well of the 1 mM L-methionine/1 mM ATP mixture was added to all wells. The plate was centrifuged at 1000 rpm for 1 minute and then incubated at room temperature for 1 hour. 5 μl of the Working Phosphate Sensor Mixture was added to all wells and the plate was centrifuged at 1000 rpm for 1 minute. The plate was read for fluorescence at 450 nm after exciting at 430 nm.
Percent inhibition was calculated in Chemical and Biological Information System (CBIS), (ChemInnovation Software Inc.). Curves were fitted by CBIS as % inhibition vs. log [compound concentration] using a 4-parameter inhibition model.
Fit=(A+((B−A)/(1+((C/x)^D))))
Compounds 1.001-1.028 were tested using the procedure described in Bioogical Example A, described above. Compounds 1.029-1.070 were tested using the procedure described in Biological Example B, described above.

T1 sequence (P31153 whole entry, the tested form may be a part): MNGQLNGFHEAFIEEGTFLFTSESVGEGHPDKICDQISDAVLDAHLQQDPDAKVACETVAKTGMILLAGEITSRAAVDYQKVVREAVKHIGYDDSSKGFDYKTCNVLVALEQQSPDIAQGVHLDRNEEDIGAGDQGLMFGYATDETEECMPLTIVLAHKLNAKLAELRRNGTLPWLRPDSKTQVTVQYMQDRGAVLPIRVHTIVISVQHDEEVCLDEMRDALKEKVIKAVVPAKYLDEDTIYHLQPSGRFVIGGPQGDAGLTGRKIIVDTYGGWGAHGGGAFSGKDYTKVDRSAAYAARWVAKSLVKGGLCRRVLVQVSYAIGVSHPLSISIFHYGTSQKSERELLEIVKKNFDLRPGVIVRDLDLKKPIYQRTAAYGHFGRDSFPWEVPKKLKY

| Structure (SMILES) | IC50 |
| --- | --- |
| CNc1nc(=O)n(Cc2c[nH]nn2)c2cc(C3CC3)ccc12 [1.006, 1-((1H-1,2,3-triazol-4-yl)methyl)-7-cyclopropyl-4-(methylamino)quinazolin-2(1H)-one] | 1 to 10 µM |
| CC(c1c[nH]cn1)n1c(=O)nc(N2CC[C@@H](O)C2)c2ccc(C(F)(F)F)cc21 (mixture of isomers) [1.012, 1-(1-(1H-imidazol-4-yl)ethyl)-4-((R)-3-hydroxypyrrolidin-1-yl)-7-(trifluoromethyl)quinazolin-2(1H)-one] | 0.01 to 0.2 µM |
| CNc1nc(=O)n(Cc2c[nH]cn2)c2cc(C3CC3)ccc12 [1.004, 1-((1H-Imidazol-4-yl)methyl)-7-cyclopropyl-4-(methylamino)quinazolin-2(1H)-one] | 0.01 to 0.2 µM |

Further lines, results first:

| IC50 | Structure (SMILES) |
| --- | --- |
| 0.2 to 0.5 µM | C[C@H](c1c[nH]cn1)n1c(=O)nc(N2CCC2)c2ccc(C(F)(F)F)cc21 (single isomer, unassigned) [1.027] |
| 0.01 to 0.2 µM | CNc1nc(=O)n([C@@H](C)c2c[nH]cn2)c2cc(C(F)(F)F)ccc12 (single isomer, unassigned) [1.009] |
